Data taken from patent US20080032897A1, “Methods of screening for inhibitors of autoinhibited proteins” (priority 2004, published 2008).
Entries after “also recorded” stand apart in the source; their conditions may differ.

Experiments:
WASP = target: T1, WASP (Homo sapiens, UniProt P42768); settings: cited from earlier work
T1 sequence (P42768 with tags, fused parts or gaps limits assumed): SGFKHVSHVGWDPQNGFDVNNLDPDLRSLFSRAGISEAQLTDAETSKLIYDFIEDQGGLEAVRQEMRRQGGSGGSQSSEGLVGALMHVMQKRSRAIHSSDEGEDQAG

N-WASP = settings: cited from earlier work
Pak = settings: reported; cited from earlier work
[1] = tested on: mixed-lineage kinases (MLKs); settings: reported; cited from earlier work
full-length Pak1 = target: T2, full-length Pak1 (Homo sapiens, UniProt Q13153); assay: luminescence-based (Kinase Glo) kinase assay, Cdc42-activated full-length Pak1; type: biochemical; settings: 384-well plates, ATP-dependent luminescence, FIG. 9C
T2 construct: made in house; host or cells: Sf9 cells
Experimental: In some embodiments, the kinase activity of these two proteins (wild-type full length kinase, and isolated kinase domain) is measured in parallel using a validated luminescence-based assay. In this assay, kinase activity is based on a measurement of the residual ATP in the reaction following kinase-mediated ATP hydrolysis (Kinase Glo®; Promega®). This is an endpoint assay in which kinase reactions are allowed to proceed until a predetermined timepoint at which point the addition of the Kinase Glo® detection mix containing luciferase and luciferin stops the kinase reaction and utilizes the residual ATP to convert luciferin to oxyluciferin with the accompanying emission of a photon of light. Intensity of the emitted light is linearly correlated with ATP concentration. […]
The isolated kinase domain or full-length Pak1 in assay buffer is aliquotted into individual wells of a 384-well plate using a Bio-Tek MicroFill®. […] The reaction is stopped by the addition of Kinase Glo® reagent (15 μl/well), and is incubated at room temperature for 10-30 minutes to allow development of luminescence. Luminescence is read in a Cary Eclipse (Varian®) fluorometer/luminometer outfitted for reading 384-well plates.
A luminescence-based assay for kinase activity is used based on measurement of residual ATP in the reaction following kinase-mediated ATP hydrolysis. […]

T2 sequence (Q13153 whole entry): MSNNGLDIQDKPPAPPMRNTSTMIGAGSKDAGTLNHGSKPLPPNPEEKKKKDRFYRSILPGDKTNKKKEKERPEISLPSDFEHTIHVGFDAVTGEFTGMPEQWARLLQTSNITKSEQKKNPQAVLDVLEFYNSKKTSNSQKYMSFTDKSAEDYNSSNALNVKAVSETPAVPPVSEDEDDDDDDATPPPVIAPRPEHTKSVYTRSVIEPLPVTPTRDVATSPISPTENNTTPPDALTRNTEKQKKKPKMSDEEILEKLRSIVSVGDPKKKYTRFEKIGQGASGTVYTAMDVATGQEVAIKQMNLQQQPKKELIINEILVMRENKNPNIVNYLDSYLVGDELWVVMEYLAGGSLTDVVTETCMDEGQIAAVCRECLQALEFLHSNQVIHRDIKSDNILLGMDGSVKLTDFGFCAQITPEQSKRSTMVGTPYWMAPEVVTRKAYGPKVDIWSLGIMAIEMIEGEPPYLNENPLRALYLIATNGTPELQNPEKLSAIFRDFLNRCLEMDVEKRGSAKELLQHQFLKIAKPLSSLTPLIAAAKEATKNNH

CN(C)C[C@H](O)Cn1c2ccc(Br)cc2c2cc(Br)ccc21 (racemic) [wiskostatin]
binding site on WASP (WASP; NMR structure): bound exclusively to the PBD in its autoinhibited conformation | effect on autoinhibited fold of the PBD (WASP; biophysical experiments): stabilizes the autoinhibited fold of the PBD | inhibition of N-WASP (N-WASP): chemical inhibitors of N-WASP

CCSCc1ccc2c(c1)c1c3c(c4c5cc(CSCC)ccc5n5c4c1n2[C@H]1C[C@](O)(C(=O)OC)[C@]5(C)O1)CNC3=O [CEP-1347]
concentration at which Pak is inhibited (Pak): low micromolar | potency against MLKs relative to Pak [1]: at least an order of magnitude more potent

CN[C@@H]1C[C@H]2O[C@@](C)([C@@H]1OC)n1c3ccccc3c3c4c(c5c6ccccc6n2c5c31)C(=O)NC4 [staurosporine]
inhibition of Pak1 kinase activity (full-length Pak1): successfully detects inhibition of Pak; also recorded: readily detected
